Data taken from patent publication US9504659B2 (priority 2006, dated 2016).

Experiment: ER804057 content of the emulsion by extraction and HPLC-UV after storage
Type: physicochemical
Conditions: emulsion PIT-ER804057 at 5%; for ER804057 content in the emulsion: theoretical concentration 40 μg/ml
Protocol: The stability of this thermoreversible emulsion was evaluated after storage for 6 months at a temperature of +4° C. by verifying the ER804057 content in the emulsion and by checking the size distribution of oil droplets in the emulsion. To assay ER804057, a selective extraction of ER804057 from the emulsion was carried out, followed by analysis by high performance liquid chromatography (HPLC) coupled to UV detector equipped with […]. The ER804057 content of the emulsion to be verified was determined using a standard range containing between 5 and 25 μg/ml of ER804057. In order to compensate for the variations in extraction yields, a constant amount of an internal standard, the chemical structure of which is very similar to that of ER804057, was introduced into each sample to be assayed (including into the samples of the standard range). This internal standard was the chemical molecule called ER803022.
The sample of PIT-ER804057 at 5% to be assayed was prepared by taking an aliquot of the emulsion PIT-ER804057 at 5%, to which 10 μg of internal standard was added, and which was diluted in water for injectable preparation.
The extraction of ER804057 from the samples of the standard range or from the samples of PIT-ER804057 at 5% was carried out in the following way: The sample was solubilized with CM2:1. The two-phase system obtained was composed of a chloroform phase containing predominantly ER804057 and an aqueous phase containing the other compounds of the emulsion. The chloroform phase was recovered and evaporated under hot conditions under a stream of nitrogen. The dry extract obtained was taken up and again solubilized in the CM2:1 mixture. […] The dry extract derived from each sample was conserved at −20° C. before being analyzed by HPLC.
The dry extract of each sample was taken up with 50 μl of CM4:1, and then diluted to ½ in methanol, then to 1/10th in a mixture of 30% acetonitrile-water for injectable preparation, 20 μl of the dilution were injected into a liquid chromatography apparatus (HPLC Merck Hitachi, serie 7000) comprising a Waters XTerra™ RP8 column pre-equilibrated in a mobile phase consisting of a mixture of 80% of phase A (water for injectable preparation/ethanol 50/50 containing 2% H3PO4) and 20% of phase B (ethanol containing 2% H3PO4), ER804057 and the internal standard were eluted using a gradient of ethanol containing 2% H3PO4. At the outlet of the HPLC, the eluate meets the UV detector and the molecules are detected at the wavelength of 215 nm. […] Once the curve was established, the amount of ER804057 present in the emulsion PIT-ER804057 at 5% was then determined by measuring the ratio of the surface areas of the ER804057/internal standard peaks.

## CCCCCCCCCCCC(=O)CC(=O)N[C@H](COCC[C@@H](CCCCCCC)OC(=O)CCCCCCCCCCC)COP(=O)(O)OCCNC(=O)NCCOP(=O)(O)OC[C@@H](COCC[C@@H](CCCCCCC)OC(=O)CCCCCCCCCCC)NC(=O)CC(=O)CCCCCCCCCCC [ER804057, dodecanoic acid (1R,6R,22R,27R)-1,27-diheptyl-9,19-dihydroxy-9,19-dioxido-14-oxo-6,22-bis[(1,3-dioxotetradecyl)amino]-4,8,10,18,20,24-hexaoxa-13,15-diaza-9,19-diphosphaheptacosane-1,27-diyl ester]
1 month at +4° C.
  ER804057 content in the emulsion: 38 µg/mL
3 months at +4° C.
  ER804057 content in the emulsion: 37 µg/mL
6 months at +4° C.
  change of ER804057 concentration in the emulsion on storage: has not substantially varied
  ER804057 content in the emulsion: 42 µg/mL
